Measured values from PMC11054271, “ABCG2 Transports the Flukicide Nitroxynil and Affects Its Biodistribution and Secretion into Milk” (Pharmaceutics, 2024).

Experiments:
[1] = test system: ovine ABCG2; test: Transepithelial transport assay in MDCK-II cells transduced with ovine ABCG2; format: in vitro ADME; conditions: sheep, MDCK-II oABCG2, nitroxynil 10 µM, no Ko143, read-out: Relative efflux transport ratio (BA/AB)
Description: Parental Madin–Darby canine kidney epithelial cells (MDCK–II) and their subclones transduced with murine (mAbcg2) and human (hABCG2) variants of ABCG2 were kindly provided by Dr. A. H. Schinkel (Netherlands Cancer Institute). Transduced MDCK–II cells with the ovine (oABCG2) and bovine (bABCG2) variants were previously generated by our group. Cells were cultured as described elsewhere.
Transepithelial transport assays were carried out as previously described with minor variations, using Hanks’ balanced salt solution (Sigma-Aldrich) supplemented with HEPES (25 mM), with or without Ko143 (1 μM), and containing or not nitroxynil 10 μM. […] At the end of the experiment, confluence of the monolayer was measured with the previously described Lucifer Yellow permeability test, with minor modifications. The appearance of nitroxynil in the opposite side of the well was measured by HPLC as later described. Active transport was expressed as relative efflux transport ratio (apically directed transport percentage divided by the basolaterally directed translocation percentage) at 4 h and referred to the initial concentration. […]
(§1) Waters 2695 separation module and Waters 2998 UV photodiode array detector set at 270 nm were used for samples analysis. […] Limit of detection (LOD) and quantification (LOQ) were calculated as previously described. […]

[2] = test system: murine Abcg2; test: Plasma pharmacokinetics in wild-type and Abcg2−/− male mice; format: in vivo; conditions: 10 mg/kg s.c.
Description: (§2) All in vivo experiments were carried out using wild-type and Abcg2^−/− mice aged between 8 and 17 weeks, all of >99% FVB/N genetic background, generated and gently supplied by A. H. Schinkel (Netherlands Cancer Institute). Mice were housed and handled complying with institutional and ARRIVE guidelines and European legislation (EU Directive 2010/63/EU for animal experiments). Additionally, experimental procedures were approved by the Animal Care and Use Committee of the University of León and the Junta de Castilla y León (ULE_011_2019).
For pharmacokinetic experiments, a single dose of nitroxynil at 10 mg/kg was administered subcutaneously to wild-type and Abcg2^−/− male mice (n = 4–5, for each time point). Distomicide® (250 mg/mL) commercial solution was dissolved in saline (sodium chloride 0.9%) and dosed at 200 μL per 30 g body weight. Blood samples were collected at different time points (0.5, 3, 4.5, 6, 24, 48 and 96 h) and heparinized blood samples were centrifugated for 15 min at 3000× g. […]
(§3) Plasma, milk and tissue samples from each animal were individually processed and analyzed without pooling, while samples from transport assays were not processed. […]
as §1

[3] = target: T1, murine Abcg2 (Mus musculus, UniProt Q7TMS5); test: Milk secretion experiment in lactating wild-type and Abcg2−/− female mice; format: in vivo; set-up: from tissue; host or cells: whole animal: wild-type vs Abcg2-/- mice, >99% FVB/N background; conditions: lactating female mice, 30 min after 10 mg/kg i.v.
T1 sequence (Q7TMS5 1-657): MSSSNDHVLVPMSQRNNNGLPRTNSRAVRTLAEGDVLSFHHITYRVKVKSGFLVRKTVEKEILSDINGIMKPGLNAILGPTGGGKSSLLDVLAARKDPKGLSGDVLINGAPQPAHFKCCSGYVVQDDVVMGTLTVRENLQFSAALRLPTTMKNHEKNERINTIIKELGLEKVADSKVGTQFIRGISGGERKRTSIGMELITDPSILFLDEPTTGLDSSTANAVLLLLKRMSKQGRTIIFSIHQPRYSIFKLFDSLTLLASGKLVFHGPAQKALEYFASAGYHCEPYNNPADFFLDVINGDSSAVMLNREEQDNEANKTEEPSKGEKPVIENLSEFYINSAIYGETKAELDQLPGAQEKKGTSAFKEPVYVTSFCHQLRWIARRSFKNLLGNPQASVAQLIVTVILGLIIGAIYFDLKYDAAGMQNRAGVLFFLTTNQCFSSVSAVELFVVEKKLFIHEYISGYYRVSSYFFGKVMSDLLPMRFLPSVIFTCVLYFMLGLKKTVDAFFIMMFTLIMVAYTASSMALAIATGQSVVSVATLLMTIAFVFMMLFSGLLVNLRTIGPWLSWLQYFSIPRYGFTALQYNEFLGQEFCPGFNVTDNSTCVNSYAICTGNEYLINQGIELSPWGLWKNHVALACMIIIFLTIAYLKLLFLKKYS
Description: as §2
Pups of approximately 10 days old were separated from their mothers (wild-type (n = 10) and Abcg2^−/− (n = 11) female mice) 3 h before beginning the experiment. Milk secretion experiments were performed as previously described. Nitroxynil solution was prepared by diluting Distomicide® (250 mg/mL) commercial solution in saline and administered at a dose of 150 μL/30 g bw into the tail vein under anesthesia with isoflurane. […]
as §3, §1

## N#Cc1cc(I)c(O)c([N+](=O)[O-])c1 [nitroxynil]
[1]
  efflux ratio at 4 h, 10 µM: 27.4 ± 5.32
[2]; FVB/N, mouse, plasma, sc, Abcg2−/− male mice, 0.5-96 h
  AUC: 3530 ± 130 µg·h/mL
[2]; both type of mice (wild-type and Abcg2−/−), male
  Time of Cmax (sampling point): 3 h
[3]
  Milk concentration, fold higher in wild-type compared with Abcg2−/−: 1.9 fold
  Milk-to-plasma ratio, fold higher in wild-type compared with Abcg2−/−: 2.1 fold
